According to US9801901B2, “Alginate oligomers for use in overcoming multidrug resistance in bacteria” (priority 2009, dated 2017):
Values after ≈ are worked out from the molar mass of the structure shown. Like-named read-outs stand apart in the source and are kept apart here.

Assays:
MDR Providencia stuartii = assay: MIC-assay, Mueller-Hinton broth with G-block alginate, 384-well, OD600 (Table 11); assay type: cell-based; conditions: Providencia stuartii (IR57 India, V7) MDR
Text: (§1) Minimum inhibitory concentration (MICs) of different antibiotics for strains of E. coli and Providencia stuartii displaying MDR phenotypes in the presence of varying concentrations of OligoCF-5/20 (0-10%). (MIC values are expressed in μg ml^−1).

[1] = system: strains of E. coli displaying MDR phenotypes; assay: as above; assay type: cell-based; conditions: Escherichia coli, Escherichia coli (5702, Wales, V11) MDR, read-out: MIC
Text: as §1

[2] = system: Burkholderia cepacia (1322, V23); assay: MIC-assay, Mueller-Hinton broth with G-block alginate, 384-well, OD600
[3] = system: strains of Klebsiella pneumoniae displaying MDR phenotypes; assay: MIC-assay, Mueller-Hinton broth with G-block alginate, 384-well, OD600 (Table 10); assay type: cell-based; conditions: read-out: MIC
Text: Minimum inhibitory concentration (MICs) of different antibiotics for strains of Klebsiella pneumoniae displaying MDR phenotypes in the presence of varying concentrations of OligoCF-5/20 (0-10%). (MIC values are expressed in μg ml^−1).

[4] = system: Pseudomonas aeruginosa (R22, PSA, V1); assay: MIC-assay, Mueller-Hinton broth with G-block alginate, 384-well, OD600
[5] = system: Acinetobacter lwoffii (Egypt, V10); assay: as above
[6] = system: Acinetobacter baumannii (Egypt, V9); assay: as above
Streptococcus oralis = assay: MIC-assay, Mueller-Hinton broth with G-block alginate, 384-well, OD600 (Table 12); assay type: cell-based; conditions: Streptococcus oralis (5610, V17) MDR, read-out: MIC
Text: (§2) Minimum inhibitory concentration (MICs) of different antibiotics for strains of Streptococcus oralis and Staphylococcus aureus (MRSA) displaying MDR phenotypes in the presence of varying concentrations of OligoCF-5/20 (0-10%). (MIC values are expressed in μg ml^−1).

[7] = system: Staphylococcus aureus (MRSA) U50; assay: as above; assay type: cell-based; conditions: MRSA 1040s, U50 MDR, read-out: MIC
Text: as §2

[8] = Table 8, G-block (OligoCF-5/20) 0%
[9] = Table 8, G-block (OligoCF-5/20) 2%
[10] = Table 8, G-block (OligoCF-5/20) 6%
[11] = Table 8, G-block (OligoCF-5/20) 10%
[12] = Table 9, G-block (OligoCF-5/20) 0%
[13] = Table 9, G-block (OligoCF-5/20) 2%
[14] = Table 9, G-block (OligoCF-5/20) 6%
[15] = Table 9, G-block (OligoCF-5/20) 10%

CC[C@H]1OC(=O)[C@H](C)[C@@H](O[C@H]2C[C@@](C)(OC)[C@@H](O)[C@H](C)O2)[C@H](C)[C@@H](O[C@@H]2O[C@H](C)C[C@H](N(C)C)[C@H]2O)[C@](C)(O)C[C@@H](C)[C@@H]2N[C@@H](COCCOC)O[C@H]([C@H]2C)[C@]1(C)O [Dirithromycin]
MIC (MDR Providencia stuartii; G-block (OligoCF-5/20) 0%): 8 µg/mL (≈ 9.58 µM)
MIC (MDR Providencia stuartii; G-block (OligoCF-5/20) 2%): 4 µg/mL (≈ 4.79 µM)
MIC (MDR Providencia stuartii; G-block (OligoCF-5/20) 6%): 4 µg/mL (≈ 4.79 µM)
MIC (MDR Providencia stuartii; G-block (OligoCF-5/20) 10%): 2 µg/mL (≈ 2.39 µM)
MIC ([1]; G-block (OligoCF-5/20) 0%): 128 µg/mL (≈ 153 µM)
MIC ([1]; G-block (OligoCF-5/20) 2%): 64 µg/mL (≈ 76.6 µM)
MIC ([1]; G-block (OligoCF-5/20) 6%): 32 µg/mL (≈ 38.3 µM)
MIC ([1]; G-block (OligoCF-5/20) 10%): 64 µg/mL (≈ 76.6 µM)
MIC [2, 8]: 256 µg/mL (≈ 307 µM)
MIC [2, 9]: 256 µg/mL (≈ 307 µM)
MIC [2, 10]: 128 µg/mL (≈ 153 µM)
MIC [2, 11]: 64 µg/mL (≈ 76.6 µM)
MIC ([3]; Klebsiella pneumoniae (5712, Wales, V12) MDR, G-block (OligoCF-5/20) 0%): 128 µg/mL (≈ 153 µM)
MIC ([3]; Klebsiella pneumoniae (5712, Wales, V12) MDR, G-block (OligoCF-5/20) 2%): 64 µg/mL (≈ 76.6 µM)
MIC ([3]; Klebsiella pneumoniae (5712, Wales, V12) MDR, G-block (OligoCF-5/20) 6%): 64 µg/mL (≈ 76.6 µM)
MIC ([3]; Klebsiella pneumoniae (5712, Wales, V12) MDR, G-block (OligoCF-5/20) 10%): 32 µg/mL (≈ 38.3 µM)
MIC ([3]; Klebsiella pneumoniae (IR25, India, V6) MDR, G-block (OligoCF-5/20) 0%): 1020 µg/mL (≈ 1230 µM)
MIC ([3]; Klebsiella pneumoniae (IR25, India, V6) MDR, G-block (OligoCF-5/20) 2%): 1020 µg/mL (≈ 1230 µM)
MIC ([3]; Klebsiella pneumoniae (IR25, India, V6) MDR, G-block (OligoCF-5/20) 6%): 512 µg/mL (≈ 613 µM)
MIC ([3]; Klebsiella pneumoniae (IR25, India, V6) MDR, G-block (OligoCF-5/20) 10%): 256 µg/mL (≈ 307 µM)
MIC ([3]; Klebsiella pneumoniae (K3, India, V8) MDR, G-block (OligoCF-5/20) 0%): 256 µg/mL (≈ 307 µM)
MIC ([3]; Klebsiella pneumoniae (K3, India, V8) MDR, G-block (OligoCF-5/20) 2%): 128 µg/mL (≈ 153 µM)
MIC ([3]; Klebsiella pneumoniae (K3, India, V8) MDR, G-block (OligoCF-5/20) 6%): 128 µg/mL (≈ 153 µM)
MIC ([3]; Klebsiella pneumoniae (K3, India, V8) MDR, G-block (OligoCF-5/20) 10%): 128 µg/mL (≈ 153 µM)
MIC [4, 8]: > 512 µg/mL
MIC [4, 9]: > 512 µg/mL
MIC [4, 10]: 512 µg/mL (≈ 613 µM)
MIC [4, 11]: 256 µg/mL (≈ 307 µM)
MIC [5, 12]: < 1 µg/mL
MIC [5, 13]: < 1 µg/mL
MIC [5, 14]: < 1 µg/mL
MIC [5, 15]: < 1 µg/mL
MIC [6, 12]: 4 µg/mL (≈ 4.79 µM)
MIC [6, 13]: < 1 µg/mL
MIC [6, 14]: < 1 µg/mL
MIC [6, 15]: < 1 µg/mL
MIC (Streptococcus oralis; G-block (OligoCF-5/20) 0%): 4 µg/mL (≈ 4.79 µM)
MIC (Streptococcus oralis; G-block (OligoCF-5/20) 2%): 4 µg/mL (≈ 4.79 µM)
MIC (Streptococcus oralis; G-block (OligoCF-5/20) 6%): < 0.0312 µg/mL
MIC (Streptococcus oralis; G-block (OligoCF-5/20) 10%): 0.0312 µg/mL (≈ 0.0374 µM)
MIC ([7]; G-block (OligoCF-5/20) 0%): 1020 µg/mL (≈ 1230 µM)
MIC ([7]; G-block (OligoCF-5/20) 2%): 512 µg/mL (≈ 613 µM)
MIC ([7]; G-block (OligoCF-5/20) 6%): 512 µg/mL (≈ 613 µM)
MIC ([7]; G-block (OligoCF-5/20) 10%): 256 µg/mL (≈ 307 µM)
